# Values quoted from earlier work in patent US12394502B2, “Method for predicting HLA-binding peptides using protein structural features” (The General Hospital Corporation, priority 2019, dated 2025).
# Columns and labels:
# [1] = test system: advanced hormone refractory prostate cancer patients; settings: personalized vaccination alone or combined with a low dose of estramustine
# [2] = test system: Stage IV Melanoma Patients; settings: temozolomide combined with peptide vaccination
# [3] = test system: ovarian carcinoma patients
# [4] = more than 25 clinical trials
# [5] = test system: healthy human volunteers
molecule,measurement,setting,value
C[C@]12CC[C@@H]3c4ccc(OC(=O)N(CCCl)CCCl)cc4CC[C@H]3[C@@H]1CC[C@@H]2O [estramustine],patients with >50% decrease in serum prostate specific antigen (PSA),[1],54%
Cn1nnc2c(C(N)=O)ncn2c1=O [temozolomide],toxicity,[2],low toxicity
Polyinosinic-Polycytidylic Acid-poly-L-lysine Carboxymethylcellulose [poly-ICLC],generation of NY-ESO-1-specific CD4+ and CD8+ T cell and antibody responses,"[3]; 1.4 mg poly-ICLC and Montanide added to OLP, compared to OLP alone or OLP and Montanide, subcutaneous",markedly enhanced
same,"patients showing induction of CD4+ and CD8+ T cell, as well as antibody responses to the peptide",[3]; poly-ICLC in combination with NY-ESO-1 peptide vaccine (in addition to Montanide),> 90%
same,toxicity profile,[4],relatively benign toxicity profile
same,safety,[5]; human volunteer study,safe
same,differential expression of genes versus placebo,"[5]; one single s.c. administration, 8 subjects versus 4 placebo, whole blood",up to 212 genes
